Experimental data from patent US20260297070A1, “CYCLIC [COMPOUND LEFT OUT] WRN INHIBITORS” (Nimbus Wadjet, Inc., priority 2023, published 2026).

These molecules were tested against T1, human Werner helicase (WRN-BV08, Uniprot Q14191, amino acids 517-1235 with L1074F point mutation) (Homo sapiens, UniProt Q14191, L1074F) (assay: WRN (BV08) ADP-Glo Assay). Details: 0.15 nM WRN, 5 μM ATP, 0.1 nM DNA duplex, 15 min preincubation, 60 min at 25° C., pH 7.5, 1% DMSO; read-out: ADP-Glo_hWRN_IC50.
T1 construct: Uniprot Q14191, amino acids 517-1235 with L1074F point mutation; TEV-cleavable 8×His (C, cleaved yes); made in house; host or cells: Sf9 insect cells (baculovirus)
T1 sequence (Q14191 with tags, fused parts or gaps L1074F limits assumed): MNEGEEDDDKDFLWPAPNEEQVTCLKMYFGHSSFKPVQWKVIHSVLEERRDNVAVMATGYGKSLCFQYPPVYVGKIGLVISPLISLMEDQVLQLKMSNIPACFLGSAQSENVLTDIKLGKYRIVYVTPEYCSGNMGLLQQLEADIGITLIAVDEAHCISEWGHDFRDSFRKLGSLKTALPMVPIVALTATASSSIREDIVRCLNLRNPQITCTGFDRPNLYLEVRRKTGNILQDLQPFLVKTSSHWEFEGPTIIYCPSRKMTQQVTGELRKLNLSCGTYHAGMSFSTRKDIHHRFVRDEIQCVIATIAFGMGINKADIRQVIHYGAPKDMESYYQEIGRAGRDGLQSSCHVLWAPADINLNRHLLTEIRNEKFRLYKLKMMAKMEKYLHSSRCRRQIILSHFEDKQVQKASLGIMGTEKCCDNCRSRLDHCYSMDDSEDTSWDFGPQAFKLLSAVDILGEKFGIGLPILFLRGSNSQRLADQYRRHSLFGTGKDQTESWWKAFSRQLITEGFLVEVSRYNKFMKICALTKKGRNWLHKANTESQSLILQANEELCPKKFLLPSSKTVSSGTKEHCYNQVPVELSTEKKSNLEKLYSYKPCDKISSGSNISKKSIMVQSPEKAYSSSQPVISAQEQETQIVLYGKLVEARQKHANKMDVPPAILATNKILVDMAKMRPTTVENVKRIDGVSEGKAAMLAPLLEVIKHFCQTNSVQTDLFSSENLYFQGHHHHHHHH
Type: biochemical
Summary of the method: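 Percent inhibition was normalised to DMSO (max) and 20 μM NSC-617145 (min) controls from ADP-Glo luminescence, and IC50 values came from a four-parameter fit. The reaction ran 60 min at 25 °C with 0.15 nM WRN, 5 μM ATP and 0.1 nM duplex DNA.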

Row | SMILES | IC50
1 | COc1cc(CN(C(=O)C2Cc3cc(-n4cccc4C)ccc32)C2C=CS(=O)(=O)C2)ccn1 (centres unmarked) [I-132, N-(1,1-dioxo-2,3-dihydro-1lambda6-thiophen-3-yl)-N-[(2-methoxypyridin-4-yl)methyl]-3-(2-methyl-1H-pyrrol-1-yl)bicyclo[4.2.0]octa-1,3,5-triene-7-carboxamide] | 0.5 to 5 µM
2 | COc1cc(CN(C(=O)Cn2cc(-c3ccccc3F)cn2)C2C=CS(=O)(=O)C2)ccn1 (centres unmarked) [I-134, N-(1,1-dioxo-2,3-dihydro-1lambda6-thiophen-3-yl)-2-[4-(2-fluorophenyl)-1H-pyrazol-1-yl]-N-[(2-methoxypyridin-4-yl)methyl]acetamide] | 0.5 to 5 µM
3 | CC(C)(O)c1cc(CN(C(=O)Cc2ccc(C(F)(F)F)cc2)C2C=CS(=O)(=O)C2)ccn1 (centres unmarked) [I-135, N-(1,1-dioxo-2,3-dihydro-1lambda6-thiophen-3-yl)-N-{[2-(2-hydroxypropan-2-yl)pyridin-4-yl]methyl}-2-[4-(trifluoromethyl)phenyl]acetamide] | 0.5 to 5 µM
4 | COc1cc(CN(C(=O)Cc2ccc(-c3ccc(F)cc3)cc2Cl)C2C=CS(=O)(=O)C2)ccn1 (centres unmarked) [I-136, 2-{3-chloro-4′-fluoro-[1,1′-biphenyl]-4-yl}-N-(1,1-dioxo-2,3-dihydro-1lambda6-thiophen-3-yl)-N-[(2-methoxypyridin-4-yl)methyl]acetamide] | 0.5 to 5 µM
5 | COc1cc(CN(C(=O)C(C)n2cc(-c3ccc(F)cc3)cn2)[C@@H]2C=CS(=O)(=O)C2)ccn1 (stereo partly drawn) [I-137, N-[(3R)-1,1-dioxo-2,3-dihydro-1lambda6-thiophen-3-yl]-2-[4-(4-fluorophenyl)-1H-pyrazol-1-yl]-N-[(2-methoxypyridin-4-yl)methyl]propanamide] | 0.5 to 5 µM
6 | Cc1cccn1-c1ccc(CC(=O)N(Cc2ccc(C(=O)O)cc2)C2C=CS(=O)(=O)C2)c(F)c1 (centres unmarked) [I-138, 4-{[N-(1,1-dioxo-2,3-dihydro-1lambda6-thiophen-3-yl)-2-[2-fluoro-4-(2-methyl-1H-pyrrol-1-yl)phenyl]acetamido]methyl}benzoic acid] | 0.5 to 5 µM
7 | Cc1cccn1-c1ccc(CC(=O)N(Cc2ccnc(CC(C)(C)O)c2)C2C=CS(=O)(=O)C2)c(F)c1 (centres unmarked) [I-139, N-(1,1-dioxo-2,3-dihydro-1lambda6-thiophen-3-yl)-2-[2-fluoro-4-(2-methyl-1H-pyrrol-1-yl)phenyl]-N-{[2-(2-hydroxy-2-methylpropyl)pyridin-4-yl]methyl}acetamide] | 0.5 to 5 µM
8 | O=C(C(C(=O)N(Cc1ccncc1)C1C=CS(=O)(=O)C1)c1ccc(-c2ccc(F)cc2)cc1)N1CCC1 (centres unmarked) [I-140, 3-(azetidin-1-yl)-N-(1,1-dioxo-2,3-dihydro-1lambda6-thiophen-3-yl)-2-{4′-fluoro-[1,1′-biphenyl]-4-yl}-3-oxo-N-[(pyridin-4-yl)methyl]propanamide] | 0.5 to 5 µM
9 | CCOc1cc(CN(C(=O)Cc2ccc(-n3cccc3)cc2)C2C=CS(=O)(=O)C2)ccn1 (centres unmarked) [I-141, N-(1,1-dioxo-2,3-dihydro-1lambda6-thiophen-3-yl)-N-[(2-ethoxypyridin-4-yl)methyl]-2-[4-(1H-pyrrol-1-yl)phenyl]acetamide] | 0.5 to 5 µM
10 | CNc1cc(CN(C(=O)Cc2ccc(-n3cccc3C)cc2F)C2C=CS(=O)(=O)C2)ccn1 (centres unmarked) [I-142, N-(1,1-dioxo-2,3-dihydro-1lambda6-thiophen-3-yl)-2-[2-fluoro-4-(2-methyl-1H-pyrrol-1-yl)phenyl]-N-{[2-(methylamino)pyridin-4-yl]methyl}acetamide] | 0.5 to 5 µM
11 | O=C(Cc1ccc(-c2ccc(F)c(F)c2)cc1)N(Cc1ccncc1)C1C=CS(=O)(=O)C1 (centres unmarked) [I-143, 2-{3′,4′-difluoro-[1,1′-biphenyl]-4-yl}-N-(1,1-dioxo-2,3-dihydro-1lambda6-thiophen-3-yl)-N-[(pyridin-4-yl)methyl]acetamide] | 0.5 to 5 µM
12 | COC(C(=O)N(Cc1ccncc1)C1C=CS(=O)(=O)C1)c1ccc(-c2ccc(F)cc2)cc1 (centres unmarked) [I-144, N-(1,1-dioxo-2,3-dihydro-1lambda6-thiophen-3-yl)-2-{4′-fluoro-[1,1′-biphenyl]-4-yl}-2-methoxy-N-[(pyridin-4-yl)methyl]acetamide] | 0.5 to 5 µM
13 | O=C(Cc1ccc(-n2cccc2)cc1)N(Cc1nc(C(F)(F)F)cs1)C1C=CS(=O)(=O)C1 (centres unmarked) [I-145, N-(1,1-dioxo-2,3-dihydro-1lambda6-thiophen-3-yl)-2-[4-(1H-pyrrol-1-yl)phenyl]-N-{[4-(trifluoromethyl)-1,3-thiazol-2-yl]methyl}acetamide] | 0.5 to 5 µM
14 | O=C(Cc1ccc(-n2cccc2)cc1)N(Cc1nc(-c2cccnc2)cs1)C1C=CS(=O)(=O)C1 (centres unmarked) [I-146, N-(1,1-dioxo-2,3-dihydro-1lambda6-thiophen-3-yl)-N-{[4-(pyridin-3-yl)-1,3-thiazol-2-yl]methyl}-2-[4-(1H-pyrrol-1-yl)phenyl]acetamide] | 0.5 to 5 µM
15 | O=C(Cn1ccc(-c2ccc(F)cc2)cc1=O)N(Cc1ccncc1)C1C=CS(=O)(=O)C1 (centres unmarked) [I-147, N-(1,1-dioxido-2,3-dihydrothiophen-3-yl)-2-(4-(4-fluorophenyl)-2-oxopyridin-1(2H)-yl)-N-(pyridin-4-ylmethyl)acetamide] | 0.5 to 5 µM
16 | O=C(Cc1ccc(-n2cccc2)cc1)N(Cc1nc(CC(F)(F)F)cs1)C1C=CS(=O)(=O)C1 (centres unmarked) [I-148, N-(1,1-dioxo-2,3-dihydro-1lambda6-thiophen-3-yl)-2-[4-(1H-pyrrol-1-yl)phenyl]-N-{[4-(2,2,2-trifluoroethyl)-1,3-thiazol-2-yl]methyl}acetamide] | 0.5 to 5 µM
17 | O=C(Cc1ccc(-n2cccc2)cc1)N(Cc1nc2ccccc2s1)C1C=CS(=O)(=O)C1 (centres unmarked) [I-149, N-[(1,3-benzothiazol-2-yl)methyl]-N-(1,1-dioxo-2,3-dihydro-1lambda6-thiophen-3-yl)-2-[4-(1H-pyrrol-1-yl)phenyl]acetamide] | 0.5 to 5 µM
18 | Cc1cccn1-c1ccc(CC(=O)N(Cc2ccnnc2)C2C=CS(=O)(=O)C2)c(F)c1 (centres unmarked) [I-150, N-(1,1-dioxo-2,3-dihydro-1lambda6-thiophen-3-yl)-2-[2-fluoro-4-(2-methyl-1H-pyrrol-1-yl)phenyl]-N-[(pyridazin-4-yl)methyl]acetamide] | 0.5 to 5 µM
19 | CC(C)c1ccc(CC(=O)N(Cc2ccncc2)C2C=CS(=O)(=O)C2)c(F)c1 (centres unmarked) [I-151, N-(1,1-dioxo-2,3-dihydro-1lambda6-thiophen-3-yl)-2-[2-fluoro-4-(propan-2-yl)phenyl]-N-[(pyridin-4-yl)methyl]acetamide] | 0.5 to 5 µM
20 | CC(C)(O)c1cc(CN(C(=O)Cc2ccc(-n3cccc3)cc2)C2C=CS(=O)(=O)C2)ccn1 (centres unmarked) [I-152, N-(1,1-dioxo-2,3-dihydro-1lambda6-thiophen-3-yl)-N-{[2-(2-hydroxypropan-2-yl)pyridin-4-yl]methyl}-2-[4-(1H-pyrrol-1-yl)phenyl]acetamide] | 0.5 to 5 µM
21 | C#CCN(C)C(=O)c1ccc(CN(C(=O)Cc2ccc(-n3cccc3)cc2F)C2C=CS(=O)(=O)C2)cc1 (centres unmarked) [I-153, 4-{[N-(1,1-dioxo-2,3-dihydro-1lambda6-thiophen-3-yl)-2-[2-fluoro-4-(1H-pyrrol-1-yl)phenyl]acetamido]methyl}-N-methyl-N-(prop-2-yn-1-yl)benzamide] | 0.5 to 5 µM
22 | O=C(Cc1ccc(-n2cccc2)cc1)N(Cc1nc2c(s1)CCCC2)C1C=CS(=O)(=O)C1 (centres unmarked) [I-154, N-(1,1-dioxo-2,3-dihydro-1lambda6-thiophen-3-yl)-2-[4-(1H-pyrrol-1-yl)phenyl]-N-[(4,5,6,7-tetrahydro-1,3-benzothiazol-2-yl)methyl]acetamide] | 0.5 to 5 µM
23 | O=C(Cc1ccc(-n2cccc2)cc1)N(Cc1nc2c(s1)CCC2)C1C=CS(=O)(=O)C1 (centres unmarked) [I-155, N-({4H,5H,6H-cyclopenta[d][1,3]thiazol-2-yl}methyl)-N-(1,1-dioxo-2,3-dihydro-1lambda6-thiophen-3-yl)-2-[4-(1H-pyrrol-1-yl)phenyl]acetamide] | 0.5 to 5 µM
24 | COc1cc(CN(C(=O)Cc2ccc(-n3cccc3)cc2)C2C=CS(=O)(=O)C2)ccn1 (centres unmarked) [I-156, N-(1,1-dioxo-2,3-dihydro-1lambda6-thiophen-3-yl)-N-[(2-methoxypyridin-4-yl)methyl]-2-[4-(1H-pyrrol-1-yl)phenyl]acetamide] | 0.5 to 5 µM
25 | O=C(Cc1ccc(-n2cccc2)cc1)N(Cc1cccc(Br)c1)C1C=CS(=O)(=O)C1 (centres unmarked) [I-157, N-[(3-bromophenyl)methyl]-N-(1,1-dioxo-2,3-dihydro-1lambda6-thiophen-3-yl)-2-[4-(1H-pyrrol-1-yl)phenyl]acetamide] | 0.5 to 5 µM
26 | COc1cc(CN(C(=O)Cc2ccc(-c3ccc(F)cc3)cc2)C2C=CS(=O)(=O)C2)ccn1 (centres unmarked) [I-158, N-(1,1-dioxo-2,3-dihydro-1lambda6-thiophen-3-yl)-2-{4′-fluoro-[1,1′-biphenyl]-4-yl}-N-[(2-methoxypyridin-4-yl)methyl]acetamide] | 0.5 to 5 µM
27 | COc1cc(CN(C(=O)C(C(=O)N(C)C)c2ccc(S(F)(F)(F)(F)F)cc2)C2C=CS(=O)(=O)C2)ccn1 (centres unmarked) [I-159, N′-(1,1-dioxo-2,3-dihydro-1lambda6-thiophen-3-yl)-N′-[(2-methoxypyridin-4-yl)methyl]-N,N-dimethyl-2-[4-(pentafluoro-lambda6-sulfanyl)phenyl]propanediamide] | 0.5 to 5 µM
28 | O=C(Cc1ccc(-n2cccc2)cc1)N(Cc1ccnc(Cl)c1)C1C=CS(=O)(=O)C1 (centres unmarked) [I-160, N-[(2-chloropyridin-4-yl)methyl]-N-(1,1-dioxo-2,3-dihydro-1lambda6-thiophen-3-yl)-2-[4-(1H-pyrrol-1-yl)phenyl]acetamide] | 0.5 to 5 µM
29 | O=C(Cc1ccc(-n2cccc2)cc1F)N(Cc1ccncc1)C1C=CS(=O)(=O)C1 (centres unmarked) [I-161, N-(1,1-dioxo-2,3-dihydro-1lambda6-thiophen-3-yl)-2-[2-fluoro-4-(1H-pyrrol-1-yl)phenyl]-N-[(pyridin-4-yl)methyl]acetamide] | 0.5 to 5 µM
